Patent publication US20160089464A1, “MALODOR REDUCTION COMPOSITIONS” (The Procter & Gamble Company, priority 2014, published 2016)

Assay: Comment Code material properties: vapor pressure, ClogP, probability of ingredient color instability, odor detection threshold, melamine formaldehyde PMC headspace response ratio and leakage, liquid dish neat product liquid-air partition coefficient
Assay type: physicochemical
Details: Table 1 materials; each letter of the code is one property class (vapor pressure, ClogP, color instability, odor detection threshold, PMC headspace ratio, PMC leakage, liquid dish liquid-air partition coefficient)

Question: Which “Comment Code” value does the source give for `C=C(C)C1CCC(C)C(O)C1` (stereo not drawn) [Material 897] here?
Answer: BCEFHIJKL

Question: Which “Comment Code” value does the source give for `C=C1C2CCC(C2)C1(C)CCC=C(C)CO` (stereo not drawn) [Material 616] here?
Answer: DEFHJK

Question: With `C=C1C2CCC(C2)C1(C)C` (stereo not drawn) [Material 589] as the molecule, how does the “Comment Code” value read?
Answer: ADEFGIJKL

Question: Which “Comment Code” value does the source give for `CC(O)CO` (stereo not drawn) [Material 993] here?
Answer: ACEFGIKL

Question: With `CC(C)(O)CCc1ccccc1` [Material 639] as the molecule, how does the “Comment Code” value read?
Answer: CEFGJK

Question: With `CCCCCCCC#N` [Material 578] as the molecule, how does the “Comment Code” value read?
Answer: ACEFGIKL

Question: For `CCCCCCCCC=CC#N` [Material 827], which “Comment Code” value is on record?
Answer: BDEFHJK

Question: With `CC1=CCC23C(C)CCC(C(C)C)C2C13` (stereo not drawn) [Material 714] as the molecule, how does the “Comment Code” value read?
Answer: ADEFHJKL

Question: Which “Comment Code” value does the source give for `CCC(C)(O)CCC=C(C)C` (stereo not drawn) [Material 877] here?
Answer: BCEFGIJKL

Question: With `CC(=O)OC(C)CCC=C(C)CCC=C(C)C` (stereo not drawn) [Material 881] as the molecule, how does the “Comment Code” value read?
Answer: DEFHJK

Question: Which “Comment Code” value does the source give for `COC(=O)c1ccccc1NC(O)CC(C)c1ccccc1` (stereo not drawn) [Material 1093] here?
Answer: DFHJ

Question: With `O=C(Oc1ccccc1)c1ccccc1` [Material 965] as the molecule, how does the “Comment Code” value read?
Answer: DFHJK

Question: With `CCCCCCCCCCC=O` [Material 1102] as the molecule, how does the “Comment Code” value read?
Answer: BDHJK

Question: With `CC(C)=CCCC(C)=C1CC=C(C)CC1` [Material 608] as the molecule, how does the “Comment Code” value read?
Answer: DEFHJK

Question: With `CC1(O)CCC2=C(CCCC2(C)C)C1` (stereo not drawn) [Material 676] as the molecule, how does the “Comment Code” value read?
Answer: DEFHJK

Question: Which “Comment Code” value does the source give for `CC(=CCC1CC=C(C)C1(C)C)CO` (stereo not drawn) [Material 908] here?
Answer: CHJK

Question: For `C=C(C)C1CCC(C)C2=C(C1)C(C)CC2` (stereo not drawn) [Material 709], which “Comment Code” value is on record?
Answer: DEFHJKL

Question: Which “Comment Code” value does the source give for `CC/C=C\C/C=C/CCO` [Material 1072] here?
Answer: ACEFHK

Question: For `CC/C(=C/CC1CC=C(C)C1(C)C)CO` (stereo not drawn) [Material 1024], which “Comment Code” value is on record?
Answer: DEFHJK

Question: Which “Comment Code” value does the source give for `C=CCCC(=O)C1=CCCC2(CCCC2)C1` [Material 1038] here?
Answer: DGJK

Question: For `C=C1C(O)CC2CC1C2(C)C` (stereo not drawn) [Material 974], which “Comment Code” value is on record?
Answer: BCEFGIJKL

Question: For `CC1C(C)(C)c2ccccc2C1(C)C` [Material 879], which “Comment Code” value is on record?
Answer: ADHIJKL

Question: Which “Comment Code” value does the source give for `CCCCCCCCCCO` [Material 868] here?
Answer: BDEFGJK

Question: For `CC(C)CCCC(C)CCCC(C)C=O` (stereo not drawn) [Material 741], which “Comment Code” value is on record?
Answer: BDFGJK

Question: For `COc1cc(OC)c(C=O)c(OC)c1` [Material 736], which “Comment Code” value is on record?
Answer: BCGI

Question: Which “Comment Code” value does the source give for `CC1=CCC(O)(C(C)C)CC1` (stereo not drawn) [Material 791] here?
Answer: BCHIJK

Question: With `CC1=CCCC2(C)CCC(C(C)(C)O)CC12` (stereo not drawn) [Material 712] as the molecule, how does the “Comment Code” value read?
Answer: DEFHJK

Question: For `CC1=CC2C(CC1)C(C)=CCC2C(C)C` (stereo not drawn) [Material 698], which “Comment Code” value is on record?
Answer: DEFHJKL

Question: With `CC(C)Cc1ccc(CC(C)C=O)cc1` (stereo not drawn) [Material 1033] as the molecule, how does the “Comment Code” value read?
Answer: DHJK

Question: For `CC(C)=CCC=C(C)C1CC=C(C)CC1` (stereo not drawn) [Material 719], which “Comment Code” value is on record?
Answer: DEFHJK

Question: For `C=C1CCC2C3C(C(C)C)CCC2(C)C13` (stereo not drawn) [Material 631], which “Comment Code” value is on record?
Answer: BDEFHJKL

Question: Which “Comment Code” value does the source give for `CCCC/C=C/C=C/C=O` [Material 1064] here?
Answer: ACHKL

Question: With `CC1CCC2C(C)(C)C3CC12CCC3(C)OC=O` (stereo not drawn) [Material 566] as the molecule, how does the “Comment Code” value read?
Answer: BDEFHJK

Question: Which “Comment Code” value does the source give for `CCCCCCCCC=CC=O` [Material 828] here?
Answer: ADHJK

Question: Which “Comment Code” value does the source give for `C=C1CC2CCC1C2(C)C` (stereo not drawn) [Material 711] here?
Answer: ADEFGIJKL

Question: For `CCCCCC1C(=O)CCC1CC(=O)OC` (stereo not drawn) [Material 1083], which “Comment Code” value is on record?
Answer: DFHJK

Question: For `CCC(=O)OCC(=O)OC(C)C1CCCC(C)(C)C1` (stereo not drawn) [Material 1009], which “Comment Code” value is on record?
Answer: DFHJ

Question: With `Cc1coc2c1CCC(C)C2` (stereo not drawn) [Material 802] as the molecule, how does the “Comment Code” value read?
Answer: BCEFHIJKL

Same assay, conditions: cell strings several class symbols together; each letter is one property class of L1

Question: With `C=C1C2CCC(C2)C1(C)CCC=C(C)CO` (stereo not drawn) [Material 616] as the molecule, how does the “Comment Code” value read?
Answer: DEFHJK

Question: Which “Comment Code” value does the source give for `CC(=O)[C@@]1(C)CC2=C(CCCC2(C)C)C[C@@H]1C` [Material 215] here?
Answer: DHJK

Question: Which “Comment Code” value does the source give for `C=CC(C)=CC=CC(=C)C` [Material 495] here?
Answer: ADEFGIKL

Question: Which “Comment Code” value does the source give for `CC(C)C12CCC(C)(CC1)O2` [Material 875] here?
Answer: ADGIJKL

Question: With `CC(C)=CCCC(C)=CC#N` [Material 302] as the molecule, how does the “Comment Code” value read?
Answer: BCEFHKL

Question: With `CC12CCC(CC1=O)C2(C)C` (stereo not drawn) [Material 588] as the molecule, how does the “Comment Code” value read?
Answer: ACEFGIJKL

Question: Which “Comment Code” value does the source give for `CC(C)CCOC(=O)C(C)C` [Material 239] here?
Answer: ACEFGIJKL

Question: For `CC1CCCCCCCCCCCCC(=O)C1` (stereo not drawn) [Material 206], which “Comment Code” value is on record?
Answer: DEFGJK

Question: Which “Comment Code” value does the source give for `COC1=C(C)OC(C)C1=O` (stereo not drawn) [Material 740] here?
Answer: ACEFGIJKL

Question: For `CCOC1CCC(C(C)(C)CC)CC1` (stereo not drawn) [Material 12], which “Comment Code” value is on record?
Answer: ADEFHJK

Question: For `CCOC(=O)OC1C(C)CCC(C)C1C` (stereo not drawn) [Material 1005], which “Comment Code” value is on record?
Answer: BDEFHJKL

Question: With `C/C=C(\C)C(=O)OCCc1ccccc1` [Material 960] as the molecule, how does the “Comment Code” value read?
Answer: DHJK

Question: For `CC(C)C(=O)OCCc1ccccc1` [Material 958], which “Comment Code” value is on record?
Answer: DHJK

Question: Which “Comment Code” value does the source give for `CC(=O)OC(C)CC(C)(C)c1ccccc1` (stereo not drawn) [Material 1134] here?
Answer: BDFHJK

Question: With `CC(C)C=CCO` [Material 194] as the molecule, how does the “Comment Code” value read?
Answer: ACGIKL

Question: With `CC1=CCC23C(C)CCC(C(C)C)C2C13` (stereo not drawn) [Material 714] as the molecule, how does the “Comment Code” value read?
Answer: ADEFHJKL

Question: For `CC/C=C\CCO` [Material 542], which “Comment Code” value is on record?
Answer: ACEFHIKL

Question: With `CCOC(=O)C=Cc1ccccc1` [Material 400] as the molecule, how does the “Comment Code” value read?
Answer: BCEFHK

Question: For `O=C1CCCCCCC/C=C/CCCCCCC1` [Material 501], which “Comment Code” value is on record?
Answer: DEFGJ

Question: For `CC(C)C(=O)OC1CC2CC1C1C=CCC21` (stereo not drawn) [Material 487], which “Comment Code” value is on record?
Answer: DEFHJK

Question: For `CC1=C2CC(C(C)(C)O)CCC2(C)CCC1` (stereo not drawn) [Material 329], which “Comment Code” value is on record?
Answer: DFHJK

Question: For `CC1=CC(=O)[C@@H]2C[C@H]1C2(C)C` [Material 1119], which “Comment Code” value is on record?
Answer: ACEFGIJKL

Question: For `CCCCCCOC(=O)CCC` [Material 270], which “Comment Code” value is on record?
Answer: BDEFHJKL

Question: With `C[C@@H]1CC[C@H]2[C@@H]1[C@H]1[C@@H](CC[C@]2(C)O)C1(C)C` [Material 1140] as the molecule, how does the “Comment Code” value read?
Answer: DEFHJK

Question: For `CC1=CC[C@@H]2C[C@H]1C2(C)C` [Material 901], which “Comment Code” value is on record?
Answer: ADEFGIJKL

Question: For `C=C[C@](C)(O)CCC=C(C)C` [Material 888], which “Comment Code” value is on record?
Answer: BCEFGIJK

Question: Which “Comment Code” value does the source give for `CC/C(=C/CC1CC=C(C)C1(C)C)CO` (stereo not drawn) [Material 1024] here?
Answer: DEFHJK

Question: For `C=CCCC(=O)C1=CCCC2(CCCC2)C1` [Material 1038], which “Comment Code” value is on record?
Answer: DGJK

Question: For `COc1cc(C)cc(O)c1` [Material 811], which “Comment Code” value is on record?
Answer: BCHIK

Question: With `CC1(C)C2CCC3(CO3)C1C2` (stereo not drawn) [Material 617] as the molecule, how does the “Comment Code” value read?
Answer: ACEFGIJKL

Question: With `C=C(C)C1CC=C(C)C(=O)C1` (stereo not drawn) [Material 576] as the molecule, how does the “Comment Code” value read?
Answer: ACGIJKL

Question: With `Cc1n[nH]cc1-c1ccccc1` [Material 808] as the molecule, how does the “Comment Code” value read?
Answer: CEFHK

Question: Which “Comment Code” value does the source give for `CC(C)=CCCC(C)CCO` (stereo not drawn) [Material 899] here?
Answer: BCHIJKL

Question: Which “Comment Code” value does the source give for `CC(C)(O)CCC1CCCCC1` [Material 496] here?
Answer: BDEFGIJK

Question: Which “Comment Code” value does the source give for `CC1=CCCC2(C)CCC(C(C)(C)O)CC12` (stereo not drawn) [Material 712] here?
Answer: DEFHJK

Question: Which “Comment Code” value does the source give for `CCCCCCOC(=O)C(C)CC` (stereo not drawn) [Material 273] here?
Answer: BDEFHJKL

Question: With `CC1(C)C2CCC3(C2)C1C1(CCC3(C)C)OCCO1` (stereo not drawn) [Material 1144] as the molecule, how does the “Comment Code” value read?
Answer: DEFHJK

Question: With `CC1OC(C)C2Cc3ccccc3C2O1` (stereo not drawn) [Material 141] as the molecule, how does the “Comment Code” value read?
Answer: CEFHJK

Question: Which “Comment Code” value does the source give for `C=C1CCC2C3C(C(C)C)CCC2(C)C13` (stereo not drawn) [Material 631] here?
Answer: BDEFHJKL

Question: For `C=C(C)[C@@H]1CC=C(C)C(=O)C1` [Material 169], which “Comment Code” value is on record?
Answer: ACGIJKL

Question: For `CC1CCC2C(C)(C)C3CC12CCC3(C)OC=O` (stereo not drawn) [Material 566], which “Comment Code” value is on record?
Answer: BDEFHJK

Question: With `CC=Cc1ccc(OC(C)=O)c(OC)c1` [Material 213] as the molecule, how does the “Comment Code” value read?
Answer: CFHJK

Question: For `CC12CCC(CC1)C(C)(C)O2` [Material 376], which “Comment Code” value is on record?
Answer: ADEFGIJKL

Question: For `CCc1ccccc1CC(C)(C)C=O` [Material 354], which “Comment Code” value is on record?
Answer: BDHJK

Same assay, conditions: letter codes A-L: vapor pressure, ClogP, probability of ingredient color instability, odor detection threshold, PMC headspace response ratio, PMC leakage, liquid dish liquid-air partition coefficient; Table 1 materials with at least one MORV from 1 to 5

Question: Which “Comment Code” value does the source give for `C[C@@H]1CC[C@H]2[C@@H]1[C@H]1[C@@H](CC[C@]2(C)O)C1(C)C` [Material 1140] here?
Answer: DEFHJK

Question: For `CC1(C)C2CCC3(C2)C1C1(CCC3(C)C)OCCO1` (stereo not drawn) [Material 1144], which “Comment Code” value is on record?
Answer: DEFHJK
